The values below come from patent US7615361B2, “Toxicity screening methods” (Ceetox, Inc., priority 2006, dated 2009).

Data set [1] concerns HUVEC. Nature of the data set: Predicted Ctox from Tox-Panel. It counts as cell-based, human. The following applies: 24 HR. How it is done: (§1) Studies such as these indicate that a preferred concentration for setting Ctox is the highest concentration at which there is no observed effect on any of the indicators being measured in the cluster analysis, especially a 24-hour cluster analysis. […] It will be apparent that 24 hour assays are more time-effective, and consequently, the 24 hour NOEL/Ctox represents a preferred data point to select as Ctox in a CATS assay. It will also be apparent that, with further time studies, it may be possible to select an equally suitable Ctox at other CATS assay time points (e.g., between 24 and 72 hours, or less than 24 hours).
(§2) In certain embodiments, the predicting comprises performing concentration response analyses of measurements from at least three separate assays that are employed in the cluster analysis. For example, in the cell health cluster, such predicting will involve monitoring the concentration response effect of the compound on a first health indicator which monitors cellular replication, a second cell health indicator which monitors mitochondrial function, and a third cell health indicator which monitors membrane integrity. Of course, it is understood that fourth, fifth, sixth or more cell health indicators also may be employed. From these concentration response analyses, the highest concentration of the chemical compound at which a measurable toxic effect of the chemical compound is not observable, i.e. NOEL, is determined and the Ctox is identified as the concentration that correlates to the NOEL. In choosing the concentrations of the compound for analysis, one of skill in the art should devise a dose response regimen which is selected to provide an indication of cell health at concentrations of at least two concentration values higher than the Ctox concentration.
(§3) The results are summarized in Tables 14-17 and in FIGS. 83-102. Table 14 compares the test compound TC50 values for each assay endpoint. Test compounds are rank-ordered from most to least toxic based on their TC50 values and overall shape of the response curves. The Ctox value, or estimated sustained blood concentration where toxicity would first be expected to occur in a rat 14-day repeated dose study, is also included in this table. Negative and positive controls are included with every run. Assay response is continually monitored to assure reliable results. […] Table 15 summarizes oxidative stress and apoptosis data, Table 16 summarizes the solubility data, and Table 17 provides information on interaction with PgP.
(§4) The Ctox value was developed using 24 hr in vitro (H4IIE) toxicity data and was validated by retrospectively evaluating compounds across different classes of drugs in 14-day rat studies in which compounds were administered on a daily basis and pharmacokinetic data was available. […] Thus, Ctox values are only determined for the 24 hr in vitro results. In this example, Ctox values could not be estimated due to low toxicity in most of the cell lines.

For data set [2], the system named is SK-MEL28 cells. Nature of the data set: Predicted Ctox from Tox-Panel. It counts as cell-based, human. To be noted: SK-MEL28, 24 HR. The method, then:
as §1, §2, §3, §4

Data set [3] deals with NHEM cells. Description: Predicted Ctox from Tox-Panel. The format is cell-based, human. The following applies: 24 HR. The method, then:
as §1, §2, §3, §4

The nature of data set [4]: Intracellular ATP levels. It counts as cell-based. To be noted: rat, NRK cells, read-out: ATP TC50. The method, then: Intracellular ATP Levels: Cellular Adenosine triphosphate (ATP) was determined with an assay based on a reaction between ATP+D-luciferin+oxygen catalyzed by luciferase to yield Oxyluciferin+AMP+PPi+CO2+light. The emitted light is proportional to the amount of ATP present. […] In addition, a unique cell lysis reagent inhibits endogenous ATPases and therefore stabilizes cellular ATP by preventing its degradation to ADP. ATP is present in all-living cells and declines rapidly upon cell death. In addition, this assay in combination with the MTT assay provides an indicator of mitochondrial activity and energy status of the cell.
Plates were analyzed immediately or stored at −20° C. until needed. On the day of analysis, the plates were thawed and calibration curve prepared with ATP in the same liquid matrix as samples. ATP was quantified by adding ATP substrate solution and then reading luminescence on a Packard Fusion Luminescence or equivalent plate reader.
Intracellular ATP Levels: ATP levels in treated cells could be determined by using the regression coefficients obtained from the linear regression analysis of the calibration curve. Thus, values could be expressed as pmoles ATP/million cells. Background corrected luminescence was used to determine percent change relative to controls by dividing treated values by control values and multiplying by 100.
The third experiment was done to evaluate the specificity and selectivity of the test compound in another non-tumor cell that was derived from normal rat kidney tissue. In this experiment the test compound has no effect on cell number of acute cell death up to the 500 dilution after 6 and 24 hr of exposure (FIG. 76C and 77C). Significant effects were observed on mitochondrial markers at dilutions that dropped pH to 3.7. The bar graph in FIG. 82 summarizes these effects. […] In contrast the rat tumor cell line was sensitive to the test compound and cell death occurred at the 500 dilution and could not be attributed to low pH.

As for `CC[C@@]1(O)C(=O)OCc2c1cc1n(c2=O)Cc2cc3ccccc3nc2-1` [CAMPTOTHECIN, Camptothecin], the “Predicted Ctox” value in data set [1] is 0.1 µM; in data set [2], 0.1 µM; in data set [2] (run #2), 0.1 µM; in data set [3], 33 µM. The CC50 at 6 h in data set [4] was found to be 300 µM. The CC50 at 24 h in data set [4] is 9 µM.

On to `C=C(C)[C@H]1Cc2c(ccc3c2O[C@@H]2COc4cc(OC)c(OC)cc4[C@@H]2C3=O)O1` [ROTENONE, Rotenone], for which the “Predicted Ctox” value in data set [1] was 0.1 µM; in data set [2], 1 µM; in data set [2] (run #2) it was 0 µM; in data set [3] it was 10 µM. Besides, in data set [4], the CC50 at 6 h amounted to 10 µM. In data set [4], the CC50 at 24 h stood at 10 µM.
